How the values were obtained:
[1] = tested on: Orf63; assay: 1H,15N-HSQC comparison of Orf63-linker-peptide hybrid protein with Orf63; type: binding, lambda bacteriophage; details: 0.15 mM 15N-labeled 6xHis-Flag-Orf63-linker-peptide vs 0.15 mM 15N-labeled 6xHis-Flag-Orf63
[2] = tested on: 15N-Orf63 dimer; assay: 15N-HSQC mixing experiment with ubiquitin fusion proteins; type: binding, lambda bacteriophage; details: 2:1 ubiquitin fusion to 15N-Orf63 dimer, 5 mM Tris-Cl pH 7.4, 50 mM NaCl
Experimental: Amino acid substitution mutants were prepared using the Q5 mutagenesis method (New England Biolabs) with oligonucleotides from IDT. […] At an A600 of 0.8, expression was induced by the addition of 1 mM isopropyl thiogalactoside (IPTG), and the culture was grown for 3 h further before harvesting. Detailed information regarding the purification of this fragment by nickel affinity and gel filtration chromatography has been published previously. For NMR spectroscopy, a uniformly ^13C, ^15N isotopically labelled protein sample was made from a 1 L culture containing M9 minimal media salts supplemented with 3 g of ^13C-glucose (Sigma-Aldrich), 1 g of ^15N ammonium chloride (Sigma-Aldrich) and 1 g of ^13C,^15N Celtone algal extract (Cambridge Isotopes). Natural abundance Orf63 proteins were prepared using a similar protocol except cultures were grown in LB media. Protein concentrations were estimated by UV absorbance at 280 nm. […]
design ubiquitin […]
control ubiquitin […]
(a) A mixing experiment was performed with 15N-Orf63 and a Ubiquitin-fusion protein with a C-terminal extension corresponding to a designed peptide, or an unrelated peptide control. The mixing ratio was 2:1 (Ubiquitin fusion […]
(b,c) 15N-HSQC spectra of 15N-Orf63
(blue) and 15N-Orf63 mixed with a Ubiquitin fusion protein. Asterisks denote peaks that were […]

[3] = tested on: 15N-Orf63; assay: 15N-HSQC titration / chemical shift perturbation (CSP) mapping of peptide binding; design: species or system lambda bacteriophage
Experimental: (a) ^1H-^15N chemical shift perturbations (CSPs) measured between ^15N-Orf63 free, and in complex with a unlabelled designed peptide. Blue shading highlights a CSP > 0.05.
A titration was performed by acquiring a series of ^15N-HSQC spectra of 0.48 mM ^15N-Orf63 (monomeric concentration) with 0.12, 0.24, 0.36, 0.48, and 0.60 mM peptide ([…]) manufactured by GenScript (Piscataway, NJ) in phosphate buffered saline pH 7.4. Assignments of peptide-bound ^15N-Orf63, particularly through two helical regions, were made by walking through HN-HN correlations in a 3D 15N-NOESY spectrum.
Most resonances during the […]
throughout the two a-helical regions, was confirmed by an HN-HN walk through a 3D 15N-NOESY spectrum. Unassigned resonances N-terminal helix a1 and C-terminal to helix a2 are likely unstructured due to the absence of i,i+3, i,i+4, and HN-HN NOEs. The residue numbering follows the PDB file 8DSB and the expressed protein with N-terminal affinity […]
(1 picture or pasted object on this page, not shown here)

[4] = target: 6xHis-Flag affinity tagged Orf63 from lambda bacteriophage (phage λ); assay: SEC-MALS; 2 mg/mL Orf63; 10 mM Tris-HCl, 0.15 M NaCl, pH 8.0; SEC300A column at 0.2 mL/min
[5] = target: fluorescent designed Orf63 binding peptide FAM-Ahx-…; assay: fluorescence polarisation; 10 nM fluorescent peptide with varying concentrations of Orf63 (per protomer) in PBS pH 7.4; 1:1 binding function, each peptide assumed to bind each protomer independently
[6] = tested on: lysogenic or lytic developmental outcome of phage λ infection; details: period to new viral progeny, bacterial survivors, conversion to lysogens; ref [8],[11]; cited from earlier work

**Q.** With DTKELILAIARKVKEMIKNS [hybrid protein] as the molecule, how does the “spectrum of hybrid protein relative to Orf63” value [1] read?
**A.** resembled Orf63 with additional peaks from the helical ligand along with a set of chemical shift changes

**Q.** Which “line broadening / chemical shift changes” value [2] does the source give for MAIAHAATEYVFADFVLK [reference compound] here?
**A.** no chemical shift or line broadening changes

**Q.** With “DTKELILAIARKVKEMIKNS [synthetic peptide]” as the molecule, how does the “saturation of the complex” value ([3]; 0.48 mM 15N-Orf63 (monomeric), 0.12-0.60 mM peptide, PBS pH 7.4, between 1:1 and 1.2:1 peptide:protomer ratio) read?
**A.** the complex was deemed to be saturated with peptide ligand

**Q.** What about the “exchange regime of CSPs, majority of resonances” value ([3]; 0.48 mM 15N-Orf63 (monomeric), titrated with peptide, PBS pH 7.4) of the same molecule?
**A.** fast exchange

**Q.** What about the “exchange regime of CSPs, minority of resonances in helix α2 from S45 onwards” value ([3]; 0.48 mM 15N-Orf63 (monomeric), titrated with peptide, PBS pH 7.4, largest measured CSPs) of the same molecule?
**A.** slow exchange

**Q.** What about the “observed interaction surface (CSPs mapped on the structure)” value ([3]; 0.48 mM 15N-Orf63, PBS pH 7.4) of the same molecule?
**A.** consistent with the predicted interaction surface of the model

**Q.** Which results are given for “DTKELILAIARKVKEMIKNS [Ubiquitin fusion protein]”?
**A.** line broadening / chemical shift changes [2]: significant line broadening suggesting binding was occurring; line broadening / chemical shift changes ([2]; listed as design): severely line broadened

**Q.** What does the source list for “6xHis-Flag affinity tagged Orf63 from lambda bacteriophage (natural protein)”?
**A.** stoichiometry N [4]: 2; Kd [5]: 3.1 µM

B1: Ea22: protein encoded between the exo and xis genes of phage λ (protein, UniProt P03756 1-182, looked up)
Protein ea22: MSEINSQALREAAEQAMHDDWGFDADLFHELVTPSIVLELLDERERNQQYIKRRDQENEDIALTVGKLRVELETAKSKLNEQREYYEGVISDGSKRIAKLESNEVREDGNQFLVVRHPGKTPVIKHCTGDLEEFLRQLIEQDPLVTIDIITHRYYGVGGQWVQDAGEYLHMMSDAGIRIKGE
**Q.** For B1, which lytic/lysogenic tendency [6] is on record?
**A.** pro-lysogenic

— PMC10869804 (Scientific Reports, 2024)
